Source: PMC4673153, “Discovery of benzo[e]pyridoindolones as kinase inhibitors that disrupt mitosis exit while erasing AMPK-Thr172 phosphorylation on the spindle” (Oncotarget, 2015)
Counter-ions that a name gives are not always drawn.

What was measured:
Type in all cases: biochemical
aurora B kinase = target: T1, aurora B kinase (Homo sapiens, UniProt Q96GD4); assay: in vitro kinase assay, recombinant enzyme (MRC Dundee)
T1 construct: gene AURKB

Chk1 = target: T2, Chk1 (Homo sapiens, UniProt O14757); assay: as above
T2 construct: gene CHEK1
T2 sequence (O14757 1-476): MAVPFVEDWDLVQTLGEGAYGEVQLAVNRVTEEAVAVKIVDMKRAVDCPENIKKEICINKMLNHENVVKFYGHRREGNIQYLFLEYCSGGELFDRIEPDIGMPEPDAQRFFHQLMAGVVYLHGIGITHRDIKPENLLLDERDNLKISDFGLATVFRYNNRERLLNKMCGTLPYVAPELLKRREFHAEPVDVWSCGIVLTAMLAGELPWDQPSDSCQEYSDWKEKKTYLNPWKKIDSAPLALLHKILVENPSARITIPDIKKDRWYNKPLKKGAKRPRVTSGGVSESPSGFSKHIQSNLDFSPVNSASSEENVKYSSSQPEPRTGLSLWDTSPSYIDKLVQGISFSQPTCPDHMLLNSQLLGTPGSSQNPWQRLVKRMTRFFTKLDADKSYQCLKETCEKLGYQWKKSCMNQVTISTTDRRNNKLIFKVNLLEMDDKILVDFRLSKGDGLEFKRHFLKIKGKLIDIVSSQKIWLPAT

Tak1 = target: T3, Tak1 (Homo sapiens, UniProt O43318); assay: as above
T3 construct: gene MAP3K7
T3 sequence (O43318 1-606): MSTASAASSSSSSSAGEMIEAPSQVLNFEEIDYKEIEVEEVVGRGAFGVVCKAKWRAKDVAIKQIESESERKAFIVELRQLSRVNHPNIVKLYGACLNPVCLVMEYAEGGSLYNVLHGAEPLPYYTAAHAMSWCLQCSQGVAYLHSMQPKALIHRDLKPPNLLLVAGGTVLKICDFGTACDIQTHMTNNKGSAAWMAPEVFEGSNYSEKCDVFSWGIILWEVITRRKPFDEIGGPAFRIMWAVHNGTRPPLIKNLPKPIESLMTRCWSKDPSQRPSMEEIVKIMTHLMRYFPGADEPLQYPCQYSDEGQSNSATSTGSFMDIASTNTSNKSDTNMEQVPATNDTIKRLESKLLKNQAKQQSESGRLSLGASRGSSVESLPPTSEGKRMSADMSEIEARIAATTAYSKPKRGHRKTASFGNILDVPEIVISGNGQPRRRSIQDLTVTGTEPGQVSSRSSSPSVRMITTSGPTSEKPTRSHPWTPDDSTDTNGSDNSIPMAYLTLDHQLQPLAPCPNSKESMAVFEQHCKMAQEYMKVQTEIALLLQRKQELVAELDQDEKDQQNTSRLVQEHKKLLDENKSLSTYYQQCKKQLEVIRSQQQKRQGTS
T3 sequence (Q15750 1-504 partner): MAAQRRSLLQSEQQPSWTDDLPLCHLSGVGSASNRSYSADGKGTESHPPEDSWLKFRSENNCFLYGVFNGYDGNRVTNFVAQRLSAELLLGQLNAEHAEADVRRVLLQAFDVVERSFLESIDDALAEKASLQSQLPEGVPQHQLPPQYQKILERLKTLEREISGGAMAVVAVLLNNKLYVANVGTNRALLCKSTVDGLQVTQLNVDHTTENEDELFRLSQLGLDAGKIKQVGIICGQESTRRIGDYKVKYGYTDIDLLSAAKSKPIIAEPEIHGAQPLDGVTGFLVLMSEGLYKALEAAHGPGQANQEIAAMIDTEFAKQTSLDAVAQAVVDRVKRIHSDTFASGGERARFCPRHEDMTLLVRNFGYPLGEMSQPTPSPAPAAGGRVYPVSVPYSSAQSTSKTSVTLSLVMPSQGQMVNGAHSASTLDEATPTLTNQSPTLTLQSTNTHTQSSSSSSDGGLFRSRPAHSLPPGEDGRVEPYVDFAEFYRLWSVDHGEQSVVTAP

phosphorylase kinase = assay: as above
CaMKKβ = target: T4, CaMKKβ (Homo sapiens, UniProt Q96RR4); assay: kinase panel profiling at […], recombinant enzyme (MRC Dundee)
T4 construct: gene CAMKK2
T4 sequence (Q96RR4 2-588): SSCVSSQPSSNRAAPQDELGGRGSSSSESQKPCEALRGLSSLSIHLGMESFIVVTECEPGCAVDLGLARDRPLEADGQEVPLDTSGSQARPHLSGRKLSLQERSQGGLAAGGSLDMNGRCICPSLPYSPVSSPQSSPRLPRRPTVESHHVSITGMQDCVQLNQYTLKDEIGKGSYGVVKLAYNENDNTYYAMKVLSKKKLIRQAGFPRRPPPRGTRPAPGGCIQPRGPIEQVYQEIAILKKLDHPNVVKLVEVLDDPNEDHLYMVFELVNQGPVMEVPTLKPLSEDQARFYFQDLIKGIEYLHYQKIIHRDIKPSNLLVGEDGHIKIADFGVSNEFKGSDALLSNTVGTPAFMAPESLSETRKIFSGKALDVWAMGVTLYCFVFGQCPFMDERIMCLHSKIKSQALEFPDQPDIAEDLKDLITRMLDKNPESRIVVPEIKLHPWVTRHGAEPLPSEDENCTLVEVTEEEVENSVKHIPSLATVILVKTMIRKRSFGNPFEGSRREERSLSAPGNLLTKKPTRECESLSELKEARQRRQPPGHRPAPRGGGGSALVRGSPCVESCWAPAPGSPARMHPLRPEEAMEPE

Melk = Melk (Homo sapiens, UniProt Q14680); assay: in vitro kinase assay, recombinant enzyme (MRC Dundee)
Sequence of Melk (Q14680 whole entry): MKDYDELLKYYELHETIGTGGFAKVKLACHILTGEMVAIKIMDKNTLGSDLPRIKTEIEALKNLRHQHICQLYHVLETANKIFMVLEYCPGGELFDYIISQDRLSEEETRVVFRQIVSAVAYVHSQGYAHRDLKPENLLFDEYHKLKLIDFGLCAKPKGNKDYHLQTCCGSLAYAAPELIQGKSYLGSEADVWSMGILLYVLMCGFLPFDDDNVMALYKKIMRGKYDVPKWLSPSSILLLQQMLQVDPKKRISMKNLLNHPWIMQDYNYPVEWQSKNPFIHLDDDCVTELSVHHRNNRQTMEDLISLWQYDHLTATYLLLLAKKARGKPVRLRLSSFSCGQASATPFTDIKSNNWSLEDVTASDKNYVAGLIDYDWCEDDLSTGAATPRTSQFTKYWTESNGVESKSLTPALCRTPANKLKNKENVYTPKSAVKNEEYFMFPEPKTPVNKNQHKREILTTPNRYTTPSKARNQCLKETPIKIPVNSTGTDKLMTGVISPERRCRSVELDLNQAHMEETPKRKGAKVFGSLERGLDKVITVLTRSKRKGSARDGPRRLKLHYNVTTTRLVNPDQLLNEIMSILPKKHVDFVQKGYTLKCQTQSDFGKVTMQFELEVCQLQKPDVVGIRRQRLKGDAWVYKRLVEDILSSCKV

ARK5/Nuak1 = target: T5, ARK5/Nuak1 (Homo sapiens, UniProt O60285); assay: as above
T5 sequence (O60285 1-661): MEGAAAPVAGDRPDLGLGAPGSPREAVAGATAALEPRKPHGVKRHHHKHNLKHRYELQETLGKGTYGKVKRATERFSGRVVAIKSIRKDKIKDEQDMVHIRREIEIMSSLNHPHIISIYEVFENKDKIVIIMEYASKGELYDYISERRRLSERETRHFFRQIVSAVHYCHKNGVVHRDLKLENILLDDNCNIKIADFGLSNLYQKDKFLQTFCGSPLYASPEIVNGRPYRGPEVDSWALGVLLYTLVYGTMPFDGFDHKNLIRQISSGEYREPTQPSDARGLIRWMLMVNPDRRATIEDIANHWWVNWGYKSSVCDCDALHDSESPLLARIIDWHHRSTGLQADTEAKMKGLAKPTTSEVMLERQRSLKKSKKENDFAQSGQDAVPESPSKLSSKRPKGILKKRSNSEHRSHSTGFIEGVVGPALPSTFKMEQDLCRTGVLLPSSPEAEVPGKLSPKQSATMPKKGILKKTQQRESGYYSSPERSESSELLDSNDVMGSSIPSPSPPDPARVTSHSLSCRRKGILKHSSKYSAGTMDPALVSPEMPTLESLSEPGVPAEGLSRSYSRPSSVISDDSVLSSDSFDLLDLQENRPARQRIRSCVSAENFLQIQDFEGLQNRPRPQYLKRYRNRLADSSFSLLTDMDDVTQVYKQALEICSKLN

Chk2 = target: T6, Chk2 (Homo sapiens, UniProt O96017); assay: as above
T6 construct: gene CHEK2
T6 sequence (O96017 whole entry): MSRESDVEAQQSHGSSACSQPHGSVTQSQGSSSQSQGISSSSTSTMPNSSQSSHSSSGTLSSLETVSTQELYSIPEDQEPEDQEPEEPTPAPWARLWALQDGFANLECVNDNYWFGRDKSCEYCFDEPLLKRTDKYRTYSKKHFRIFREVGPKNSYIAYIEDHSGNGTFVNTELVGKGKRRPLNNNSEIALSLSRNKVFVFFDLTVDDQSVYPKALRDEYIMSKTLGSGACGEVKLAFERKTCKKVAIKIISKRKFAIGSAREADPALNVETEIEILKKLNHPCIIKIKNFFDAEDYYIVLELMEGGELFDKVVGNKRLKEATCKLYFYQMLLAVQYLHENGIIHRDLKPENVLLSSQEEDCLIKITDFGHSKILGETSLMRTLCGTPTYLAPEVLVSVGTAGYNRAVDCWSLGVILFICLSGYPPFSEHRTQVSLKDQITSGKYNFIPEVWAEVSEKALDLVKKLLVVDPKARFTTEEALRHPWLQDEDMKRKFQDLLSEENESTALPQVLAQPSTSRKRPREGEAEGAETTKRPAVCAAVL

Flt1/V-EGFR1 = target: T7, Flt1/V-EGFR1 (Homo sapiens, UniProt P17948); assay: as above
T7 sequence (P17948 781-1338 limits assumed): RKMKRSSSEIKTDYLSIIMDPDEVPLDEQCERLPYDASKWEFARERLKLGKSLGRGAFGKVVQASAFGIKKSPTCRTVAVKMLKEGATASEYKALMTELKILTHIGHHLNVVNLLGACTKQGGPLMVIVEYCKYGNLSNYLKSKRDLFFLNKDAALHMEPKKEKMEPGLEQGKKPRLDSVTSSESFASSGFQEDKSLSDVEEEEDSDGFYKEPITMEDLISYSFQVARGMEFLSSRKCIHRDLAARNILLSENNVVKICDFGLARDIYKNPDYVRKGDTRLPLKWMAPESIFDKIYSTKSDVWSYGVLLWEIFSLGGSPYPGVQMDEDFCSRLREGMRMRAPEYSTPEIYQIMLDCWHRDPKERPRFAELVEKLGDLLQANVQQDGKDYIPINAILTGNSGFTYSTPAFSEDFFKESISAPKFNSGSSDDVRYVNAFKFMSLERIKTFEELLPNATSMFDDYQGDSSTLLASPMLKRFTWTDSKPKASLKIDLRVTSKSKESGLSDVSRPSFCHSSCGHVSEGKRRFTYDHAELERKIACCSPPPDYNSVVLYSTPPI

Sik2 = Sik2 (Homo sapiens, UniProt Q9H0K1); assay: as above
Sequence of Sik2 (Q9H0K1 whole entry): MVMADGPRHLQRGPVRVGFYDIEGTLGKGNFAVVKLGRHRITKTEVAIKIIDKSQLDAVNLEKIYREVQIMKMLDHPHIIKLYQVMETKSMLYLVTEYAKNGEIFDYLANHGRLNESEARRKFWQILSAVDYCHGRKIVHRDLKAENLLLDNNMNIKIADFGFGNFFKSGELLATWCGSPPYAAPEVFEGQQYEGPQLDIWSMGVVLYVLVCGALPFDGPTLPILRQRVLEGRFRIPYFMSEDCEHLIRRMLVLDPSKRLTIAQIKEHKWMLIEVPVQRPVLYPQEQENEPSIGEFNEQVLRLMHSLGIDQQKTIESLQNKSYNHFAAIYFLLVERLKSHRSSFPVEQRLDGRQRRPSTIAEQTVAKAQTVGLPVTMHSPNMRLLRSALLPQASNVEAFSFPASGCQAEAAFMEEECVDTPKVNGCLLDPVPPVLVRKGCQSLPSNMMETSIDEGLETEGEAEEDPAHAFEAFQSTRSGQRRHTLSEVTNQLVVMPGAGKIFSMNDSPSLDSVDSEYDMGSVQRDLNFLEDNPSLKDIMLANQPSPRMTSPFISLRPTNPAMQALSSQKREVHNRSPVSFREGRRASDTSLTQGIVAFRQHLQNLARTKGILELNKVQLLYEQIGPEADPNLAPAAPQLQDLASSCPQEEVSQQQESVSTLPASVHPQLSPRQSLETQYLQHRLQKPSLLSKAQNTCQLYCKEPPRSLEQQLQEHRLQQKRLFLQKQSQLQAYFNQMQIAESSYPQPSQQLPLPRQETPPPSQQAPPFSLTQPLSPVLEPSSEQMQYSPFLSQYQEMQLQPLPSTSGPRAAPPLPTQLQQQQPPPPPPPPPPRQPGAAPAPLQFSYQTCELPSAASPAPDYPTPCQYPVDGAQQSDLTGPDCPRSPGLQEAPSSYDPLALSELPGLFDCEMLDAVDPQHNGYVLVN

T1 sequence (Q96GD4 whole entry): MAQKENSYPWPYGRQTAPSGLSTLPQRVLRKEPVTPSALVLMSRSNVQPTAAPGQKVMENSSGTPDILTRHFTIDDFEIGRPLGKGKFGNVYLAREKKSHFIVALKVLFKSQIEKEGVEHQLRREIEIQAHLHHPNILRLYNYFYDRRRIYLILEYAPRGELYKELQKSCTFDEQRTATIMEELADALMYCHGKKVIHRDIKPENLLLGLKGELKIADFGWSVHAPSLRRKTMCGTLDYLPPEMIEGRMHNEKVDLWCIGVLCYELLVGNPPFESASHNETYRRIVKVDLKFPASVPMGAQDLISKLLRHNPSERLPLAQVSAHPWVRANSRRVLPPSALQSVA

IC50 (aurora B kinase): 118 nM
IC50 (Chk1): 13.6 nM
IC50 (Tak1): 6 nM
IC50 (phosphorylase kinase): 18.5 nM
IC50 (Melk): 13.3 nM
IC50 (ARK5/Nuak1): 4.8 nM
IC50 (Chk2): 13.6 nM
IC50 (Flt1/V-EGFR1): 37 nM
IC50 (Sik2): 12.4 nM
Structure (SMILES): Cc1c[nH]c(=O)c2c1[nH]c1ccc3cc(OCCN4CCCCC4)ccc3c12 [C5M, 3-(2-(Piperidin-1-yl)ethoxy)-8-methyl-7H, 10H-benzo[e]pyrido(4,3-b)indol-11-one maleate]
kinase panel profiling at 250 nM, recombinant enzyme (MRC Dundee) (CaMKKβ): Among the fifteen best targets, we noted the presence of several AMPK-related kinases
